# Experimental data: patent US12460177B2, “Composition for promoting efficiency of somatic cell replication” (SEOUL NATIONAL UNIVERSITY HOSPITAL, priority 2018, dated 2025)
# System: H3K9me3 / H3K4me3 binding at the Apobec1 (demethylase) promoter region
# Test: ChIP-PCR with Apobec1 promoter primers in human mesenchymal stem cells treated with endothelin
# Format: cell-based
# Details: endothelin treatment, FIG. 1
# Excerpt: Human mesenchymal stem cells were transfected with siRNA of SMARCA4 or SMARCD2, treated with endothelin, and then harvested. In the present invention, human mesenchymal stem cells (Poietics™ Human Mesenchymal Stem Cells, Lonza) were used. The cells were selected by conducting a human mesenchymal stem cell identification experiment, and identified and classified as human bone marrow-derived stem cells after the expression of a positive cell marker (CD29, CD90, CD44, CD73, CD105 or CD166) for mesenchymal stem cells, the negative identification by a cell marker (CD34, CD45, CD14, HLA-DR or CD19), and the confirmation of multipotency of mesenchymal stem cells.
# Genomic DNA was extracted from the recovered cells, and reacted with a H3K9me3 or H3K4me3 antibody [anti-H3K9me3 (Abcam: cat. no. ab8898), anti-H3K4me3 (Abcam; cat. no. ab8580) or normal rabbit IgG (Cell Signaling Technology: cat. no. #2729): negative control], followed by ChIP-PCR performed using Apobec1 promoter primers that are able to confirm the binding of H3K9me3 or H3K4me3. […]
# Subsequently, the resulting product was heated at 65° C. for 4 hours to remove a crosslink. DNA fragments were collected using a PCR purification kit (Qiagen) and analyzed using qPCR and semi-quantitative PCR, and the results are shown in FIG. 1.
substance,measurement,setting,value
"endothelin (HLDIIW; listed as Mus musculus) [peptide generated in vascular endothelial cells, 21 amino acid residues, two S—S bonds, known as a vasoconstrictive peptide]",binding of H3K4me3 (promoting gene expression) at the demethylase promoter region,ChIP-PCR (anti-H3K4me3),increases
same,H3K9me3 (suppressing gene expression) at the demethylase promoter region,ChIP-PCR (anti-H3K9me3),detached
